Data from US9150555B2, “Amide derivative and use thereof” (Mitsubishi Tanabe Pharma Corporation, priority 2010, dated 2015).
pIC50: −log10 of the molar value. Counter-ions that a name gives are not always drawn.

Columns and labels:
[1] = system: IL-17 production of mouse spleen cells stimulated by rm-IL-23; experiment: Production of IL-17 induced when mouse spleen cells were stimulated by recombinant mouse interleukin-23 (rm-IL-23); format: cell-based; conditions: Mus musculus, 72 h, inhibition of IL-17 production, DBA/1J mouse spleen cells, rm-IL-23 1 nmol/L, ELISA
Procedure: Effect on Production of IL-17 Induced when Mouse Spleen Cells were Stimulated by Recombinant Mouse Interleukin-23 (rm-IL-23)
An RPMI1640 (Sigma-Aldrich) was used as a medium, to which penicillin G potassium (50 units/mL; Gibco), streptomycin (50 μg/mL; Gibco) and 2-mercaptoethanol (50 μmol/l; Sigma-Aldrich) were added, and then 10% of fetal calf serum (FCS; Cell Culture Technology) inactivated at 56° C. for 30 minutes was added and used in the Test. The test compound was dissolved in dimethylsulfoxide and diluted with 10% FCS-containing RPMI1640 medium to a desired concentration and used in the test. The spleens were aseptically taken out from 6-7 week-old male DBA/1J mice (Charles River Japan, Inc.) and a single cell suspension of spleen cells was prepared and hemolyzed by hypotonic treatment with a mixture of 0.83% aqueous solution of ammonium chloride and Tris-HCl buffer of pH 7.65 (9:1). A cell suspension prepared by 10% FCS-containing RPMI1640 medium was added to flat-bottomed 96 well microtestplate at 2×10^5 cells/well. Test compounds and rm-IL-23 (R&D systems) were diluted with a medium to 1 to 1,000 nmol/L, and 1 nmol/L of the final concentration respectively, which were added and cultured at 37° C., 5% carbon dioxide and 95% air for 72 hours. After completion of the culture, culture supernatant was sampled and an amount of IL-17 production was determined by ELISA method. After sampling the supernatant, WST-8 (Seikagaku Corporation) was added at 10 μl/well and cultured at 37° C., 5% carbon dioxide and 95% air for 4 hours. Then, absorbance (O.D.: Optical Density) at 450 nm was measured by a microplate reader and the value was adopted as an index of cell survivability. An inhibition rate (%) was calculated according to the following formula on the basis of an average of an amount of IL-17 production and a O.D. values of the well containing a test compound of each concentration.
Based on the dose-response curve obtained by plotting the inhibition rate in the longitudinal axis and concentration in the horizontal axis, the concentration of the compound which inhibits the level to 50% of the value of the control group (IC50; nmol/L) was determined by linear regression analysis. The results was shown in the next Table 1

hERG = hERG (Homo sapiens, UniProt Q12809); experiment: Effects on hERG current (whole-cell clamping); conditions: human, HEK 293 cells that express hERG, pH 7.4, hERG inhibition rate (%) (1 μM), 1 μM; tail peak current; hERG-expressed HEK 293 cells
Sequence of hERG (Q12809 whole entry): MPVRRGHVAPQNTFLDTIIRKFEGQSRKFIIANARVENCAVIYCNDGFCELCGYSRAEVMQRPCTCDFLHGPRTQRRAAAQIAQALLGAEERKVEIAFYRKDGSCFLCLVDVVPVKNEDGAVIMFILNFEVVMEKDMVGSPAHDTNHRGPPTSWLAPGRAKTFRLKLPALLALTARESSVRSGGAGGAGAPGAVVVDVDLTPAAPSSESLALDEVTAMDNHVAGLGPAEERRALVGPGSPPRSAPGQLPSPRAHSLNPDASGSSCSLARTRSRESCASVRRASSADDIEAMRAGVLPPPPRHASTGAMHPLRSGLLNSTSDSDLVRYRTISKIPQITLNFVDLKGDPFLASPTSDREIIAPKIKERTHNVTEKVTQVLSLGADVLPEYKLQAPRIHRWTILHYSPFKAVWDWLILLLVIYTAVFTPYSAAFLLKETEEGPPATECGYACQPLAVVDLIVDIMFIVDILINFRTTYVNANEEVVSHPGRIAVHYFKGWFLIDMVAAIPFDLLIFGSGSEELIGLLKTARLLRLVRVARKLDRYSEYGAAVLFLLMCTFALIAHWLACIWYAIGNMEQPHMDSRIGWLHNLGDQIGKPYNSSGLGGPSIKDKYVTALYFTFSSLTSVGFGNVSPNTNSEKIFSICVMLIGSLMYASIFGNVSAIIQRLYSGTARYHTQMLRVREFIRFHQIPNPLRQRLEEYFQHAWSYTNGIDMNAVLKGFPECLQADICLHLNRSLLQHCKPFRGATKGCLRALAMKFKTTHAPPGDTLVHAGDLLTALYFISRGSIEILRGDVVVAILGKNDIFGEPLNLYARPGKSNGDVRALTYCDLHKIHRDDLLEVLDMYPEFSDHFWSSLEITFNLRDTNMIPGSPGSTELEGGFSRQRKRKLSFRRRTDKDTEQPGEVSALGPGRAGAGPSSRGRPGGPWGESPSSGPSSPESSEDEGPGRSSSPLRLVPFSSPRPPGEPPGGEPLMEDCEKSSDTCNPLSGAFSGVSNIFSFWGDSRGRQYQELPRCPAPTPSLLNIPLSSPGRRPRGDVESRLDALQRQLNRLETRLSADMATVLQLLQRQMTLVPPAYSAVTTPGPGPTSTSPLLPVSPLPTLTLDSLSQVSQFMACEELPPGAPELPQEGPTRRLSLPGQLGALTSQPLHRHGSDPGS
Procedure: Dimethylsulfoxide was used as a vehicle and hERG-expressed HEK 293 cells (Cytomyx) were used as test cells. Test cells were once cultured and subdivided and were stored under frozen condition in liquid nitrogen. In the study, thawed and subcultured cells having less than 30 of the passage number were used. Test cells were cultured in a carbon dioxide incubator BNP-110M (Tabai Espec Corp.) at 37±1° C., and 5.0±0.5% of carbon dioxide concentration. The component of culture medium was MEM (Minimum Essential Medium) supplemented with 10 vol % fetal bovine serum (non-activated), 1 mmol/L sodium pyruvate, 0.1 mmol/L non-essential amino acid, 100 U/mL penicillin with 100 μg/mL streptomycin. To select gene-expressing cells, 400 μg/mL G418 Sulphate (Invitrogen) was added to the culture medium. In the dishes for the measurement, the medium which not contain G418 Sulphate (Invitrogen) was used.
As to seeding of cells for measurement, subcultured cells which became confluent were treated with 0.25% trypsin-solution containing 1 mmol/L EDTA (Invitrogen) to remove from the plate, and seeded on sterilized collagen-coated cover glass (Iwaki, AGC Techno Glass Co., LTD). The medium was exchanged appropriately, including the day of measurement.
A perfusion method was applied to the experiment. Test cells were perfused (perfusion speed: approximately 4 mL/min) with an external solution containing specified concentrations of test compounds (component of external solution: 137 mmol/L of sodium chloride, 4 mmol/L of potassium chloride, 10 mmol/L of HEPES, 1.8 mmol/L of calcium chloride, 1 mmol/L of magnesium chloride and 10 mmol/L of glucose; adjusted to pH 7.4±0.1 with sodium hydroxide aqueous solution). […] When effects were observed, the perfusion was continued until the maximum response was observed. […] The data were obtained from one experiment or more and the cells which were incubated in a carbon dioxide incubator after seeding and attached to cover slips were used for the measurement.
A whole-cell clamping method was applied to the measurement. Test cells were perfused (perfusion speed: approximately 4 mL/min) with an external solution (component of external solution: 137 mmol/L of sodium chloride, 4 mmol/L of potassium chloride, 10 mmol/L of HEPES, 1.8 mmol/L of calcium chloride, 1 mmol/L of magnesium chloride and 10 mmol/L of glucose; adjusted to pH 7.4±0.1 with sodium hydroxide aqueous solution). A glass electrode with a resistance of 2 to 6 MΩ, filled with an internal solution (component: 130 mmol/L of potassium chloride, 1 mmol/L of magnesium chloride, 5 mmol/L of EGTA, 10 mmol/L of HEPES and 5 mmol/L of ATP adjusted to pH 7.2±0.1 with sodium hydroxide aqueous solution) was used. After rupturing cell membrane with glass electrode, the cell membrane voltage was held at −80 mV via a patch clamp software (pCLAMP9 [Axon CNS], Molecular Devices) using patch clamp amplifier (EPC8, HEKA). […] Test cells and the cell-attached cover glass were changed every treatment. Temperature of the fluid in a perfusion fluid tank was 24±2° C.
The obtained current was recorded on a computer via a patch clamp amplifier using patch clamp software. An evaluation item was a tail peak current.
A tail peak current was analyzed using analyzing software (Clampfit 9 [Axon CNS], MolecularDevices). Each 2 pulses of before and after perfusion of test compound for each concentration was analyzed, and a peak values of the tail current on the pulses were determined. The inhibition ratio was determined according to the following equation:

| SMILES | pIC50 [1] | inhibition at 1 µM (hERG) [%] |
| --- | --- | --- |
| Cc1cc(NC(=O)c2cnn(-c3ccc(C4CC4)cn3)c2C)cnc1C1=CCN(C2CCOC2C)CC1 (stereo not drawn) [Example D191] | 7.23 | 47.6 |
| Cc1cc(NC(=O)c2cnn(-c3ncc(C(F)(F)F)cc3F)c2C)cnc1C1CCC2(CC1)OCCO2 [Example D196, N-[6-(1,4-Dioxaspiro[4.5]dec-8-yl)-5-methylpyridin-3-yl]-1-[3-fluoro-5-(trifluoromethyl)pyridin-2-yl]-5-methyl-1H-pyrazole-4-carboxamide] | 7.26 | 13.6 |
| COc1cc(C(F)(F)F)cnc1-n1ncc(C(=O)Nc2cnc(C3CCC4(CC3)OCCO4)c(C)c2)c1C [Example D197] | 6.91 | 0.8 |
| Cc1cc(NC(=O)c2cnn(-c3ccc(C(C)C)cn3)c2C)cnc1C1=CCC(N2CCOCC2)CC1 (stereo not drawn) [Example D200] | 7.23 | 47.6 |
| Cc1cc(NC(=O)c2cnn(-c3ccccc3)c2C)cnc1C1=CCC(N(C)C(=O)C(C)(C)C)CC1 (stereo not drawn) [Example D214] | 7.73 | 10 |
| Cc1cc(NC(=O)c2nn(C)c3ccccc23)cnc1C1=CCC(N(C)C(=O)C(C)(C)C)CC1 (stereo not drawn) [Example D217] | 7.07 | 26.7 |
| Cc1cc(NC(=O)c2cnn(-c3ccc(F)cc3)c2C)cnc1C1=CCC(N(C)C(=O)C(C)C)CC1 (stereo not drawn) [Example D219, 1-(4-Fluorophenyl)-N-{6-[4-(N-isobutyryl-N-methylamino)cyclohex-1-en-1-yl]-5-methylpyridin-3-yl}-5-methyl-1H-pyrazole-4-carboxamide] | 7.23 | 11.4 |
| Cc1cc(NC(=O)c2cnn(-c3ccc(C(F)(F)F)cn3)c2C)cnc1C1=CCC(C(=O)N(C)C)CC1 (stereo not drawn) [Example D221, N-[6-(4-N,N-Dimethylcarbamoylcyclohex-1-en-1-yl)-5-methylpyridin-3-yl]-5-methyl-1-[5-(trifluoromethyl)pyridin-2-yl]-1H-pyrazole-4-carboxamide] | 7.50 | 20.1 |
| Cc1cc(NC(=O)c2cnn(-c3ccc(C(F)(F)F)cn3)c2C)cnc1C1=CCC(NC(=O)C(C)(C)C)CC1 (stereo not drawn) [Example D224] | 6.85 | 19.5 |
| Cc1cc(NC(=O)c2cnn(-c3ccc(C(F)(F)F)cn3)c2C)cnc1C1=CCC2(CC1)OCCO2 [Example D234] | 7.25 | 5.6 |
| Cc1c(C(=O)Nc2ccc(C3CCC4(CC3)OCCO4)nc2)cnn1-c1ccc(C(F)(F)F)cn1 [Example D237] | 7.30 | 3.6 |
| Cc1cc(NC(=O)c2cnn(-c3ccc(C(F)(F)F)cn3)c2C)cnc1C1CCC2(CC1)OCCO2 [Example D238] | 7.31 | 5 |
| Cc1cc(NC(=O)c2cnn(-c3ccc(C(F)(F)F)cn3)c2C)cnc1C1=CCC(N(C)C(=O)OC(C)(C)C)CC1 (stereo not drawn) [Example D249, N-methyl-{4-[3-methyl-5-({5-methyl-1-[5-(trifluoromethyl)pyridin-2-yl]-1H-pyrazole-4-carbonyl}-amino)pyridin-2-yl]cyclohex-3-en-1-yl}carbamoic acid carbamic acid tert-butyl ester] | 6.88 | 36.9 |
| Cc1c(C(=O)Nc2ccc([C@]3(C#N)CC[C@@](C)(O)CC3)nc2)cnn1-c1ccc(C(F)(F)F)cn1 [Example D254] | 6.84 | 6.6 |
| Cc1cc(NC(=O)c2cnn(-c3ccc(F)cc3)c2C)cnc1C1=CCC(N(C)C(=O)C(C)(C)C)CC1 (stereo not drawn) [Example D260] | 8.40 | 16.8 |
| Cc1ccc(-n2ncc(C(=O)Nc3cnc(C4=CCC(N(C)C(=O)C(C)(C)C)CC4)c(C)c3)c2C)nc1 (stereo not drawn) [Example D264] | 7.76 | 7.5 |
| Cc1cc(NC(=O)c2cnn(-c3ccc(C(F)(F)F)cn3)c2C)cnc1C1=CCC(N(C)C(=O)C(F)(F)F)CC1 (stereo not drawn) [Example D265, 5-Methyl-N-(5-methyl-6-{4-[N-methyl-N-(2,2,2-trifluoroacetyl)amino]cyclohex-1-en-1-yl}pyridin-3-yl)-1-[5-(trifluoromethyl)pyridin-2-yl]-1H-pyrazole-4-carboxamide] | 8.31 | 35.9 |

| SMILES | pIC50 [1] | inhibition at 1 µM (hERG) [%] |
| --- | --- | --- |
| Cc1cc(NC(=O)c2cnn(-c3ccc(C(F)(F)F)cn3)c2C)cnc1C1=CCC(C(=O)NC(C)(C)C)CC1 (stereo not drawn) [Example D268] | 6.81 | 9.8 |
| Cc1cc(NC(=O)c2cnn(-c3ccc(C4CC4)cn3)c2C)cnc1C1=CCC(C(=O)NC(C)(C)C)CC1 (stereo not drawn) [Example D269] | 6.68 | 14.1 |
| Cc1c(C(=O)Nc2ccc([C@]3(C#N)CC[C@]4(C=CCO4)CC3)nc2)cnn1-c1ccc(C(F)(F)F)cn1 [Example D270] | 7.25 | 0.5 |
| CC[C@]1(O)CC[C@](C#N)(c2ccc(NC(=O)c3cnn(-c4ccc(Cl)cc4)c3C)cn2)CC1 [Example D275] | 7.26 | 14.4 |
| CC[C@]1(O)CC[C@](C#N)(c2ccc(NC(=O)c3cnn(-c4ccc(C(F)(F)F)cn4)c3C)cn2)CC1 [Example D276] | 7.15 | 8.9 |
| Cc1c(C(=O)Nc2ccc([C@]3(C#N)CC[C@]4(CCCO4)CC3)nc2)cnn1-c1ccc(C(F)(F)F)cn1 [Example D278, N-[6-(c-8-Cyano-r-1-oxaspiro[4.5]decan-8-yl)pyridin-3-yl]-5-methyl-1-[5-(trifluoromethyl)-pyridin-2-yl]-1H-pyrazole-4-carboxamide] | 7.30 | 13.6 |
| Cc1ccc(-n2ncc(C(=O)Nc3ccc([C@]4(C#N)CC[C@]5(CCCO5)CC4)nc3)c2C)cc1 [Example D279] | 6.95 | 12.8 |
| Cc1c(C(=O)Nc2cnc(C3=CCC(N4CCOCC4)CC3)c(F)c2)cnn1-c1ccc(C(F)(F)F)cn1 (stereo not drawn) [Example D282] | 6.76 | 11.9 |
| Cc1c(C(=O)Nc2ccc([C@]3(C#N)CC[C@@H](N(C)C(=O)C(C)(C)C)CC3)nc2)cnn1-c1ccc(C(F)(F)F)cn1 [Example D288, N-(6-{r-1-Cyano-c-4-[N-(2,2-dimethylpropanoyl)-N-methylamino]cyclohexan-1-yl}pyridin-3-yl)-5-methyl-1-[5-(trifluoromethyl)pyridin-2-yl]-1H-pyrazole-4-carboxamide] | 8.27 | 5.9 |
| Cc1c(C(=O)Nc2ccc([C@]3(C#N)CC[C@@H](N(C)C(=O)C(C)C)CC3)nc2)cnn1-c1ccc(C(F)(F)F)cn1 [Example D289, N-{6-[r-1-Cyano-c-4-(N-isobutyryl-N-methylamino)cyclohexan-1-yl]pyridin-3-yl}-5-methyl-1-[5-(trifluoromethyl)pyridin-2-yl]-1H-pyrazole-4-carboxamide] | 7.06 | 11.6 |
| Cc1nc(-n2ncc(C(=O)Nc3ccc([C@]4(C#N)CC[C@@H](N5CCOCC5)CC4)nc3)c2C)ccc1C(F)(F)F [Example D299] | 6.95 | 40.6 |
| CC(C)c1c(C(=O)Nc2ccc([C@]3(C#N)CC[C@@H](N4CCOCC4)CC3)nc2)cnn1-c1ccc(C(F)(F)F)cn1 [Example D300, N-{6-[r-1-Cyano-c-4-(morpholin-4-yl)cyclohexyl]pyridin-3-yl}-5-isopropyl-1-[5-(trifluoromethyl)pyridin-2-yl]-1H-pyrazole-4-carboxamide] | 6.74 | 26.1 |
| Cc1c(C(=O)Nc2ccc(C3=CCC(N4CCOCC4)CC3)nc2)cnn1-c1ccc(C(F)(F)F)cn1 (stereo not drawn) [Example E1, 5-Methyl-N-{6-[4-(morpholin-4-yl)cyclohex-1-en-1-yl]pyridin-3-yl}-1-[5-(trifluoromethyl)-pyridin-2-yl]-1H-pyrazole-4-carboxamide mesylate] | 7.21 | 34.7 |
| Cc1c(C(=O)Nc2ccc([C@]3(O)CC[C@@H](N4CCOCC4)CC3)nc2)cnn1-c1ccc(C(F)(F)F)cn1 [Example E2, N-{6-[r-1-Hydroxy-c-4-(morpholin-4-yl)cyclohexyl]pyridin-3-yl}-5-methyl-1-[5-(trifluoromethyl)pyridin-2-yl]-1H-pyrazole-4-carboxamide] | 6.75 | 24.4 |
| Cc1c(C(=O)Nc2ccc(C3(C#N)CCC4(CC3)OCCO4)nc2)cnn1-c1ccc(C(F)(F)F)cc1 [Example E6] | 7.55 | 36.9 |
| N#CC1(c2ccc(NC(=O)c3ccc(-c4ccc(Cl)cc4)o3)cn2)CCC2(CC1)OCCO2 [Example E18] | 7.30 | 8.8 |
